Assay results as given in patent US8993611B2, “Family of polyamine arylethylamide compounds, and their cosmetic or dermocosmetic use” (Exsymol, priority 2012, dated 2015).
Read-outs that look alike come from different tables or passages of the source.

Key:
[1] = test system: Salmonella typhimurium (TA 100); details: positive control; PBS control 88
Description: The study was carried out according to an almost-identical manner to the here-above test 2, with however D-glucose replacing D-(+)-fructose and according to following conditions. Experimentally, 18.02 g of D-glucose were solubilized at room temperature in 100 mL of water. 10 mL of the solution corresponding to 10 mM of the compound according to the invention, N-((4-imidazolyl)ethyl)-α,β-diamino-propanamide, were sampled and introduced after a pH adjustment by sodium hydroxide. The resulting reaction mixture was then introduced in a screw-top test tube, then heated at 100° C. for 80 minutes.
In parallel, the TA 100 strain was cultured in the Nutrient Broth Oxoid N° 2 (NBO2) supplemented with Ampicilline. The culture was placed overnight at 37° C. in an orbital shaker (88 rpm) so that bacteria were in growth exponential phase (10^7 to 10^9 bacteria/ml).
100 μl of test solution were added to 100 μl of the above-mentioned bacterial suspension and to 500 μl of PBS phosphate buffer, the resulting mixture being incubated 1 h at 37° C. under orbital stirring (122 rpm). 2 ml of soft-agar supplemented in biotin histidine and maintained at 45° C. were added. After mixing with Vortex, they were deposited in a Petri dish containing Vogel-Bonner hard-agar. After solidification, dishes were transferred in the incubator at 37° C. during 48-72 h. […]

[2] = test system: Salmonella typhimurium (TA 100); test: Test 3: detoxification of the reference glycotoxin methyl-glyoxal (MGO), Ames pre-incubation test; assay type: cell-based
Description: […] The resulting mixture was incubated 30 minutes at 37° C. under orbital stirring (122 rpm).
(§1) The counting of colonies was then achieved manually.
In addition to the N-((4-imidazolyl)ethyl)-α, β-diaminopropanamide compound, the following compounds according to the invention were also tested at different concentrations: • N-((4-hydroxyphenyl)ethyl)-α,β-diaminopropanamide • N-((4-imidazolyl)ethyl)-α,γ-diaminobutanamide • N-((3,4-dihydroxyphenyl)ethyl)-α,β-diaminopropanamide • N-((4-imidazolyl)ethyl)-L-lysinamide
The results are gathered in table 3 below, compared to the PBS phosphate buffer (negative control).

[3] = test system: purified histones, enriched with H1 histones; test: Test 1: protection of histones towards methyl-glyoxal (MGO), fluorimetry of the dialyzed mixture; assay type: biochemical; details: for RFU (fluorescence of dialyzed mixture, indicative of histone damage by MGO): compound 10 mM + histones + MGO 10 mM, 24 h at 37° C., excitation 340 nm, emission 470 nm, control histones + MGO 62231; for formation of non-enzymatic glycosylation products from reaction of glycotoxin with histones: result in words
Description: A solution of purified histones (5 mg/l), enriched with H1 histones, was incubated in the presence of the reference glycotoxin MGO (10 mM) during 24 h at 37° C. under stirring. In order to follow specifically fluorescence of products from non-enzymatic glycosylation of histones, it was necessary to get rid of MGO fluorescence as well as the one of the glycotoxin-trapper products. For this, the reaction mixture was dialyzed. Then it was introduced in a dialysis tape and three successive 3 hour-baths were run, each one in a NaH2PO4 buffer solution (83.3 mM) in which MGO was diluted. Dialyzed mixture fluorescence which was indicative of the damage of histones made by reaction with MGO (adduct formation) was measured by fluorimetry (λ excitation: 340 nm; λ emission: 470 nm). The measure unit corresponds to RFU (for “Relative Fluorescence Unit”).

[4] = test system: Salmonella typhimurium (TA 100); test: Test 2: detoxification of glycotoxins released by fructosylated casein, Ames pre-incubation test without metabolic activator; assay type: cell-based; details: for Number of revertants: TA 100, PBS control 84
Source text: The study was achieved on a Salmonella typhimurium (TA 100) bacterial strain which belongs to reference strains used for the Ames regulatory test (ICH steering committee, Jul. 19, 1995, Guidance on specific aspect of regulatory genotoxicity tests for pharmaceuticals). The objective was to determine, in the mutated strains' colonies, the number of revertant colonies which are representative of mutagenesis in casein-fructose system, with or without a compound according to the invention.
Experimentally, 2.7 g of D-(+)-fructose were solubilized at room temperature in 100 mL of phosphate buffer. After collecting 20 g of the colourless limpid solution (Cfructose=150 mM), 0.600 g of sodium caseinate were introduced until complete dissolution. The solution was then introduced in 2×10mL in screw-top test tubes, then placed in an oil bath at 120° C. during 1 h.
To different concentrations (400 μl) of compound according to the invention were successively added 500 μl of glycated casein and 100 μl of the above-mentioned bacterial suspension. The resulting mixture was incubated 30 minutes at 37° C. under orbital stirring (122 rpm).
as §1
The results are presented in table 2 below, compared to a negative control (PBS phosphate buffer).

[5] = compound 75 μM + methyl-glyoxal 140 μM, PBS control 91, MGO alone 161
[6] = compound 750 μM + methyl-glyoxal 140 μM, PBS control 91, MGO alone 161

SMILES: [N-]=[N+]=[N-] [NaN3, sodium azide]
- Number of revertants [1]: 211

SMILES: CC(=O)C=O [Methyl-glyoxal, methyl-glyoxal, reference compound]
- Number of revertants ([2]; methyl-glyoxal alone 140 μM, PBS control 91): 161
- Number of revertants ([2]; methyl-glyoxal alone 280 μM, PBS control 72): 308

SMILES: NCCCC[C@H](N)C(=O)NCCc1c[nH]cn1 [N-((4-imidazolyl)ethyl)-L-lysinamide]
- Number of revertants [2, 5]: 141
- Number of revertants [2, 6]: 132

SMILES: NCC(N)C(=O)NCCc1ccc(O)cc1 (stereo not drawn) [N-((4-hydroxyphenyl)ethyl)-α,β-diaminopropanamide]
- Number of revertants [2, 5]: 152

SMILES: NCCC(N)C(=O)NCCc1c[nH]cn1 (stereo not drawn) [N-((4-imidazolyl)ethyl)-α,γ-diaminobutanamide]
- RFU (fluorescence of dialyzed mixture, indicative of histone damage by MGO) [3]: 21526 RFU
- formation of non-enzymatic glycosylation products from reaction of glycotoxin with histones [3]: strongly decrease
- Number of revertants [2, 5]: 154
- Number of revertants [2, 6]: 116

SMILES: NCC(N)C(=O)NCCc1c[nH]cn1 (stereo not drawn) [N-((4-imidazolyl)ethyl)-α,β-diaminopropanamide]
- RFU ([4]; compound 7.5 mM + fructosylated casein, PBS control = 1): 1.42 RFU
- Number of revertants ([4]; compound 7.5 mM + fructosylated casein): 119
- revertant count relative to PBS control ([4]; compound 15 mM + fructosylated casein, PBS control = 1): 1.11 RFU
- Number of revertants ([4]; compound 15 mM + fructosylated casein): 93
- toxicity of the formed glycotoxins ([4]; result in words, dose-effect relationship observed): strongly decrease
- RFU (fluorescence of dialyzed mixture, indicative of histone damage by MGO) [3]: 20441 RFU
- formation of non-enzymatic glycosylation products from reaction of glycotoxin with histones [3]: strongly decrease
- Number of revertants ([2]; compound 75 μM + methyl-glyoxal 280 μM, PBS control 72, MGO alone 308): 141
- Number of revertants ([2]; compound 750 μM + methyl-glyoxal 280 μM, PBS control 72, MGO alone 308): 95

SMILES: NCC(N)C(=O)NCCc1ccc(O)c(O)c1 (stereo not drawn) [N-((3,4-dihydroxyphenyl)ethyl)-α,β-diaminopropanamide]
- Number of revertants [2, 5]: 161
- Number of revertants [2, 6]: 111
